Our source for the relative viability values is the supplement of paper PMC10307832.

Common to all, as to experiment: relative viability (nuclei count vs DMSO), 5 days (fraction); higher = more cells survive
Compound in the assay “Trametinib + Foretinib”: CC(=O)Nc1cccc(-n2c(=O)n(C3CC3)c(=O)c3c(Nc4ccc(I)cc4F)n(C)c(=O)c(C)c32)c1 [Trametinib] + COc1cc2c(Oc3ccc(NC(=O)C4(C(=O)Nc5ccc(F)cc5)CC4)cc3F)ccnc2cc1OCCCN1CCOCC1 [Foretinib] (partner 0.25 µM)
Summed up:
(§1)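 Lung cancer cell lines were seeded in 1536-well plates and dosed by pin tool the next day, with either a single drug or a fixed anchor-drug dose combined with five library-drug doses (not always all listed) spaced in √10 steps. Five days later, one step fixed the cells and stained their nuclei (final 0.05% Triton X-100, 1% formaldehyde, 1 ug/ml Hoechst), and nuclei were counted on 4× images. Relative viability is the nuclei count in treated wells divided by the count in vehicle wells, and each value is the median of duplicate plates.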

Compound in the assay “Trametinib + Crizotinib”: CC(=O)Nc1cccc(-n2c(=O)n(C3CC3)c(=O)c3c(Nc4ccc(I)cc4F)n(C)c(=O)c(C)c32)c1 [Trametinib] + C[C@@H](Oc1cc(-c2cnn(C3CCNCC3)c2)cnc1N)c1c(Cl)ccc(F)c1Cl [Crizotinib] (partner 1 µM)
A digest of the protocol: as §1

Compound in the assay “Trametinib + Vorinostat”: CC(=O)Nc1cccc(-n2c(=O)n(C3CC3)c(=O)c3c(Nc4ccc(I)cc4F)n(C)c(=O)c(C)c32)c1 [Trametinib] + O=C(CCCCCCC(=O)Nc1ccccc1)NO [Vorinostat] (partner 1 µM)
A digest of the protocol:
as §1

Compound in assay [1]: CN1C=C(C2=CC=CC=C21)/C=C\3/C4=C(C=CC=N4)NC3=O + CS(=O)(=O)N1CCN(Cc2cc3nc(-c4cccc5[nH]ncc45)nc(N4CCOCC4)c3s2)CC1 [Pictilisib] (partner 1 µM)
Summed up:
as §1

As to UMC-11, the relative viability worked out at 1 with Trametinib + Foretinib (first compound 0.0025 µM); 1.03 in the assay with Trametinib + Foretinib (first compound 0.007906 µM); 0.997 with Trametinib + Foretinib (first compound 0.025 µM); 1.06 with Trametinib + Foretinib (first compound 0.07906 µM); 1.03 in the assay with Trametinib + Foretinib (first compound 0.25 µM); 0.634 with Trametinib + Crizotinib (first compound 0.0025 µM). For the same cell line, the relative viability with Trametinib + Crizotinib (first compound 0.007906 µM) stood at 0.591; with Trametinib + Crizotinib (first compound 0.025 µM), 0.679; in the assay with Trametinib + Crizotinib (first compound 0.07906 µM), 0.647; with Trametinib + Crizotinib (first compound 0.25 µM), 0.566; with Trametinib + Vorinostat (first compound 0.0025 µM) it was 0.327; with Trametinib + Vorinostat (first compound 0.007906 µM), 0.352. The relative viability with Trametinib + Vorinostat (first compound 0.07906 µM) came out at 0.313; with Trametinib + Vorinostat (first compound 0.25 µM) it was 0.294; in assay [1] (first compound 0.02 µM), 0.742; in assay [1] (first compound 0.06325 µM), 0.553; in assay [1] (first compound 0.2 µM) it was 0.549; in assay [1] (first compound 0.6325 µM), 0.763. In addition, the relative viability in assay [1] (first compound 2 µM) was found to be 0.875.
